Columns and labels:
Test in all cases: biochemical
[1] = target: T1, panel of 374 wild-type kinases (Homo sapiens, UniProt P51957); conditions: read-out: % Enzyme Activity (relative to DMSO controls), NEK4
T1 construct: purchased Reaction Biology Corporation

[2] = target: T2, panel of 374 wild-type kinases (Homo sapiens, UniProt Q13557); conditions: read-out: % Enzyme Activity (relative to DMSO controls), CAMK2d
T2 construct: purchased Reaction Biology Corporation

[3] = target: T3, panel of 374 wild-type kinases (Homo sapiens, UniProt Q13188); conditions: read-out: % Enzyme Activity (relative to DMSO controls), MST2/STK3
T3 construct: purchased Reaction Biology Corporation
T3 sequence (Q13188 1-491): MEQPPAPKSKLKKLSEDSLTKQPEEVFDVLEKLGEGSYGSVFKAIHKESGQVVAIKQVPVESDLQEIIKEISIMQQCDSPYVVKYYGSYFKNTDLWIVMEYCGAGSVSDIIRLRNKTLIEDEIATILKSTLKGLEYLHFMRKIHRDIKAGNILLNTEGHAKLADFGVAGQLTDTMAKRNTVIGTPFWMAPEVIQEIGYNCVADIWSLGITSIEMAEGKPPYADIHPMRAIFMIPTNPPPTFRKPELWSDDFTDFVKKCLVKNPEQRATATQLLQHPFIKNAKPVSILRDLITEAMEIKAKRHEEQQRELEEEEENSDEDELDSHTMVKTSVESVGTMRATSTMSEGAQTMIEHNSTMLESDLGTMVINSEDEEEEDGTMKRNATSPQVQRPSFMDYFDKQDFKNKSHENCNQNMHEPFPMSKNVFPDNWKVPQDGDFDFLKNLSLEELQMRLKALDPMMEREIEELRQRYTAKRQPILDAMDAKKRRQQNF

[4] = target: T4, panel of 374 wild-type kinases (Homo sapiens, UniProt P00519); conditions: read-out: % Enzyme Activity (relative to DMSO controls), ABL1
T4 construct: purchased Reaction Biology Corporation
T4 sequence (P00519 whole entry): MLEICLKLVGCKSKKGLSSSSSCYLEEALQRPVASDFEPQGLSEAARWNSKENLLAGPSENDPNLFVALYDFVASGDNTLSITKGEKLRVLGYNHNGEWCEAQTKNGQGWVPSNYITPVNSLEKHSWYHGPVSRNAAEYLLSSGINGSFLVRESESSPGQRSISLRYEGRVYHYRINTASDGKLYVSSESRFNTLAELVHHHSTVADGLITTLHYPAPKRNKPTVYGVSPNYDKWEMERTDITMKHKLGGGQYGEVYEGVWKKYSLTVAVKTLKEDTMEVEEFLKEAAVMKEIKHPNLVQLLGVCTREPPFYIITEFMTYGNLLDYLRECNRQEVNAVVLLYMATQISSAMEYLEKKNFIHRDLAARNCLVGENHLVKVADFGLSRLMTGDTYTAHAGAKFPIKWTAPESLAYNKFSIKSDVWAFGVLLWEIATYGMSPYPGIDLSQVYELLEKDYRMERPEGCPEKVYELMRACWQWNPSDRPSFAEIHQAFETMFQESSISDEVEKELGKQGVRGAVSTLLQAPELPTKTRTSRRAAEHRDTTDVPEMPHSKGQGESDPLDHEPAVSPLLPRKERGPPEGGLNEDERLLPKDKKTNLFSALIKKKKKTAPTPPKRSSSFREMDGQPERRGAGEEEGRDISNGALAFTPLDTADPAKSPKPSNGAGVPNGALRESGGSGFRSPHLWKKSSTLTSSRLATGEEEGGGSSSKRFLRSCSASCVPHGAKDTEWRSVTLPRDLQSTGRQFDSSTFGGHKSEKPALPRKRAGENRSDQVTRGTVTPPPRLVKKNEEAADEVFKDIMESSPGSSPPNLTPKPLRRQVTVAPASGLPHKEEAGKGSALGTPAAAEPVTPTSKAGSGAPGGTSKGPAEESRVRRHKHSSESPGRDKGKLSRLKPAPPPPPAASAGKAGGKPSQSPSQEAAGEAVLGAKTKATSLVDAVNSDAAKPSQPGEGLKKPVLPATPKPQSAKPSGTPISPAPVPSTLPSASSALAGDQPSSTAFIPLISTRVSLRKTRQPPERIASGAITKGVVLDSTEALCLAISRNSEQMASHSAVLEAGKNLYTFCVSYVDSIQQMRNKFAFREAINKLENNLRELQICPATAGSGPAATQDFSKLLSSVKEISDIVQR

[5] = target: T5, panel of 374 wild-type kinases (Homo sapiens, UniProt Q16288); conditions: for remaining activity at 5 µM: read-out: % Enzyme Activity (relative to DMSO controls), kinase TRKC
T5 construct: purchased Reaction Biology Corporation

[6] = target: T6, panel of 374 wild-type kinases (Homo sapiens, UniProt Q09013); conditions: read-out: % Enzyme Activity (relative to DMSO controls), DMPK
T6 construct: purchased Reaction Biology Corporation
T6 sequence (Q09013 1-629): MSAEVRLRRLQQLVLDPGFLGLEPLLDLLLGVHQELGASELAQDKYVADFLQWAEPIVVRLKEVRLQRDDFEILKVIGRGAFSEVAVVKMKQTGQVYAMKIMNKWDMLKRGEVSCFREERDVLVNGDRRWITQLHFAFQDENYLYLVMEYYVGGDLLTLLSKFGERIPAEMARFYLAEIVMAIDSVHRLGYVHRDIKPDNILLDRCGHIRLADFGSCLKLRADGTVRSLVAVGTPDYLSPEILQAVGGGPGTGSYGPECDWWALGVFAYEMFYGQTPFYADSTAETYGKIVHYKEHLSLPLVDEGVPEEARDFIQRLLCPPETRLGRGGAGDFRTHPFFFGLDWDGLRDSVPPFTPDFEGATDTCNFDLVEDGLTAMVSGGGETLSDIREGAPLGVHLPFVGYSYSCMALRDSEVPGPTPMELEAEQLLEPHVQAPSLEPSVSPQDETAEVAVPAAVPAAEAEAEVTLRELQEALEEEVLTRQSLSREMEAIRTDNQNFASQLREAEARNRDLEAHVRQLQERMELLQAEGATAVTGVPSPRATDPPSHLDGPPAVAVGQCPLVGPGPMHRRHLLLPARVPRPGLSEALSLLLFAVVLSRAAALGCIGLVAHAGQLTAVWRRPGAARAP

[7] = target: T7, panel of 374 wild-type kinases (Homo sapiens, UniProt P27448); conditions: read-out: % Enzyme Activity (relative to DMSO controls), MARK3
T7 construct: purchased Reaction Biology Corporation
T7 sequence (P27448 whole entry): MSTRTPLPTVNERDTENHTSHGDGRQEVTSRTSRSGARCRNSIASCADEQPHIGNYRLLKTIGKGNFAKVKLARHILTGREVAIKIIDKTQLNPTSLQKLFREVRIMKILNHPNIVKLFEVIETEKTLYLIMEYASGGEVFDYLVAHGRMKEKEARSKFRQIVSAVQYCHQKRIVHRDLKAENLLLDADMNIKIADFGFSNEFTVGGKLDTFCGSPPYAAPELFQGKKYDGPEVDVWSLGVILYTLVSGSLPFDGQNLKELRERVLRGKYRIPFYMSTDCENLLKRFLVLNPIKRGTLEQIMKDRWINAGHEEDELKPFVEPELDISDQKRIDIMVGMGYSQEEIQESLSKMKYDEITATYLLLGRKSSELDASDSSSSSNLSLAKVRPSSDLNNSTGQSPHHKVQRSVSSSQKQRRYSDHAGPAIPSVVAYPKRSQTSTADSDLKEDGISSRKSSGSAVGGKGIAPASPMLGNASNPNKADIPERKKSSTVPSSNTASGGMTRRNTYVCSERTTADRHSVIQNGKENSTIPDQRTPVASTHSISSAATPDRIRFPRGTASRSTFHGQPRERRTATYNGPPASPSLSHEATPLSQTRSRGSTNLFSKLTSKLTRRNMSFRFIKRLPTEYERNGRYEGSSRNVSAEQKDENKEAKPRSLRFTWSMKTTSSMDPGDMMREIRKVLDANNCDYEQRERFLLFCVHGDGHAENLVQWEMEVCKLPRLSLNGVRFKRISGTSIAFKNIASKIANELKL

[8] = target: T8, panel of 374 wild-type kinases (Homo sapiens, UniProt Q15375); conditions: read-out: % Enzyme Activity (relative to DMSO controls), EPHA7
T8 construct: purchased Reaction Biology Corporation
T8 sequence (Q15375 28-998): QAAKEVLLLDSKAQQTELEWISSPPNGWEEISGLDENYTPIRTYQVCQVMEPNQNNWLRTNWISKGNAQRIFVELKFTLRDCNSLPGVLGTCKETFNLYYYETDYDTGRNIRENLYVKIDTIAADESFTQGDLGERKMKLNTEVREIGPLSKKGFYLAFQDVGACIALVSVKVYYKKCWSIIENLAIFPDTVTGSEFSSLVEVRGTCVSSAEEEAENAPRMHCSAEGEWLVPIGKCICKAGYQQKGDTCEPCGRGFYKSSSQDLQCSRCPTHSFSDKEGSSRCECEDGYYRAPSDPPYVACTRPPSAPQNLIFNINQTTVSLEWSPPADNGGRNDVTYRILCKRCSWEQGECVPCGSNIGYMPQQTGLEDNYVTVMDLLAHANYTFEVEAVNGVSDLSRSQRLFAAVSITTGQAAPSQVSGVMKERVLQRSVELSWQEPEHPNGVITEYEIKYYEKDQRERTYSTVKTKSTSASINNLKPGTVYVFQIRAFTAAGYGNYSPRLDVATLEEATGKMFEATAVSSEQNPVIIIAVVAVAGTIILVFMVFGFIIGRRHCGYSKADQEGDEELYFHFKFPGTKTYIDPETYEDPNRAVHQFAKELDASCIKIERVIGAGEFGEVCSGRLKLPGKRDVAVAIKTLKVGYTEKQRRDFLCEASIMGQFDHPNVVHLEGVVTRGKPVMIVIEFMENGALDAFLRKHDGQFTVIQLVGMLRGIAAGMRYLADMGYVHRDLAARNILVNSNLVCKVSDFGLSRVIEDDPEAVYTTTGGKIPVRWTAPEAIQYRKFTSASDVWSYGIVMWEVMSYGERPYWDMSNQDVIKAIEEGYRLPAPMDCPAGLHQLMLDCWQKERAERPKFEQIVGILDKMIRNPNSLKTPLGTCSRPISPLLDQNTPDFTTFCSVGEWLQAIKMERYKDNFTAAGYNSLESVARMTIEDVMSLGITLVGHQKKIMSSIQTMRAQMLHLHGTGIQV

[9] = target: T9, panel of 374 wild-type kinases (Homo sapiens, UniProt P31749); conditions: read-out: % Enzyme Activity (relative to DMSO controls), AKT1
T9 construct: purchased Reaction Biology Corporation
T9 sequence (P31749 whole entry): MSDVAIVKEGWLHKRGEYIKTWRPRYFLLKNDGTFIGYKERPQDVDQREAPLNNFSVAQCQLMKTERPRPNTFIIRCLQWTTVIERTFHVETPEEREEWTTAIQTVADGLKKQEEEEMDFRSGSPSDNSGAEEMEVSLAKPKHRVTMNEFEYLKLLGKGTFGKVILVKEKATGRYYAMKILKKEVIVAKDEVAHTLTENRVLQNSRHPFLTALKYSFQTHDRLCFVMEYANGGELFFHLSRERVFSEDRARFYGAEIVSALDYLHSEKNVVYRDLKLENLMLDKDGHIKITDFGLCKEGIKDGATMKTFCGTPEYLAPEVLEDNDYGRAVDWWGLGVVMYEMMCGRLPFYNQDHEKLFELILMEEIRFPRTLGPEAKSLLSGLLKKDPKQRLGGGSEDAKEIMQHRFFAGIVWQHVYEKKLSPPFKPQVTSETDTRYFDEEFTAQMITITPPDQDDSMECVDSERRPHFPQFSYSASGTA

[10] = target: T10, panel of 374 wild-type kinases (Homo sapiens, UniProt O94921); conditions: read-out: % Enzyme Activity (relative to DMSO controls), CDK14/cyclin Y (PFTK1)
T10 construct: purchased Reaction Biology Corporation
T10 sequence (O94921 whole entry): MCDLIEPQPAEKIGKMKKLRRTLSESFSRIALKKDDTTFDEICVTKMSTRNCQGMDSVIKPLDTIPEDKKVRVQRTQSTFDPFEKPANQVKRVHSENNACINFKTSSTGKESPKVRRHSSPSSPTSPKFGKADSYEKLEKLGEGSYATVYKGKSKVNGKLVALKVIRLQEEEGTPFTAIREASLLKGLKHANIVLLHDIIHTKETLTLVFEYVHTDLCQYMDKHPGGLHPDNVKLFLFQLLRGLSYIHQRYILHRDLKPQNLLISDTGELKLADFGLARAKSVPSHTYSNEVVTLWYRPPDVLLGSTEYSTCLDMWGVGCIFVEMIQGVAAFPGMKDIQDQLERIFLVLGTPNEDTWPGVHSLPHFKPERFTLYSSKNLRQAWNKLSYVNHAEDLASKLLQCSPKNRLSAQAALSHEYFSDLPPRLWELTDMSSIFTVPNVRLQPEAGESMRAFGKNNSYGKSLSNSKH

[11] = target: T11, panel of 374 wild-type kinases (Homo sapiens, UniProt Q13163); conditions: read-out: % Enzyme Activity (relative to DMSO controls), MEK5
T11 construct: purchased Reaction Biology Corporation
T11 sequence (Q13163 1-448): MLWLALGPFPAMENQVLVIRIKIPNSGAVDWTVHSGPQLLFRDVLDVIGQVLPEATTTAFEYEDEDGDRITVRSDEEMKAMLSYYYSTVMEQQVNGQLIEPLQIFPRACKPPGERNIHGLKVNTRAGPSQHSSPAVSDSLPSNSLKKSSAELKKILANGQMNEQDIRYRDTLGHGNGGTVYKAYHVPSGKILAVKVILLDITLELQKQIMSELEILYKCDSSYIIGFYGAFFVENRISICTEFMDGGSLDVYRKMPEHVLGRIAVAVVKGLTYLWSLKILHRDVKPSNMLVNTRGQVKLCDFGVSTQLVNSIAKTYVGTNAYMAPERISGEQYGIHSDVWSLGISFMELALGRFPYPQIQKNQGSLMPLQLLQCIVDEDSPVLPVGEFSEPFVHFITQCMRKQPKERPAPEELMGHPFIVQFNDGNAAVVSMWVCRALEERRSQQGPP

[12] = target: T12, panel of 374 wild-type kinases (Homo sapiens, UniProt P49759); conditions: read-out: % Enzyme Activity (relative to DMSO controls), CLK1
T12 construct: purchased Reaction Biology Corporation
T12 sequence (P49759 whole entry): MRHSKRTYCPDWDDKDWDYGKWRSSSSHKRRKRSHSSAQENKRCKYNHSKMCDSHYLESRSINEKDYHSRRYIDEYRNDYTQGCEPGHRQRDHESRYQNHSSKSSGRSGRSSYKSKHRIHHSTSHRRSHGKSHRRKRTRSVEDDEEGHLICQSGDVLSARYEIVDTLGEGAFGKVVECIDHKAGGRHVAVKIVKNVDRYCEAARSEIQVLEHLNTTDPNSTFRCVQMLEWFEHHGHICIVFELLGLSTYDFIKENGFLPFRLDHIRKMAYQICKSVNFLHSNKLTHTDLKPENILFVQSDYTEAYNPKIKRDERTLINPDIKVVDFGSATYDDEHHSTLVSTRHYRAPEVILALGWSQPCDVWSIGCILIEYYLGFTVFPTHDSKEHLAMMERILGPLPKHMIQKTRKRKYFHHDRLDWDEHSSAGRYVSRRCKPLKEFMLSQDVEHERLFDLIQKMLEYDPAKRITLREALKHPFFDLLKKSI

[13] = target: T13, panel of 374 wild-type kinases (Homo sapiens, UniProt P34947); conditions: read-out: % Enzyme Activity (relative to DMSO controls), GRK5
T13 construct: purchased Reaction Biology Corporation
T13 sequence (P34947 whole entry): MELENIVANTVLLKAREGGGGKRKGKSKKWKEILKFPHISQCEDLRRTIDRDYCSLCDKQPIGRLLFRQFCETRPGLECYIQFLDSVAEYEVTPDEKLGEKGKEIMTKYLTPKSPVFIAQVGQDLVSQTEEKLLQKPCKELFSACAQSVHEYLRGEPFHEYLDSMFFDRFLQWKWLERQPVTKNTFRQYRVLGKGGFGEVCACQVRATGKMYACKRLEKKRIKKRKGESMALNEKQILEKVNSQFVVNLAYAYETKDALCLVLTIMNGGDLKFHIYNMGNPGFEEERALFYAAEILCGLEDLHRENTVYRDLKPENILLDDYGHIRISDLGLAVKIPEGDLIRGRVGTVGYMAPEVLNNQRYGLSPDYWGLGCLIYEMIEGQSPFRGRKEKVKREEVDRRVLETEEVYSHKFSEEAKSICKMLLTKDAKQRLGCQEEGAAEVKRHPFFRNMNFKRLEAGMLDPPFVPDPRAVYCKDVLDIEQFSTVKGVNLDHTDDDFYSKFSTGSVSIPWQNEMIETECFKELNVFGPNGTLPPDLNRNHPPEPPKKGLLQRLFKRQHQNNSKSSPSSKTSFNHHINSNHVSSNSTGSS

Compound | remaining activity at 5 µM [1] | remaining activity at 5 µM [2] | remaining activity at 5 µM [3] | remaining activity at 5 µM [4] | remaining activity at 5 µM [5] | remaining activity at 5 µM [6] | remaining activity at 5 µM [7] | remaining activity at 5 µM [8] | remaining activity at 5 µM [9] | remaining activity at 5 µM [10] | remaining activity at 5 µM [11] | remaining activity at 5 µM [12] | remaining activity at 5 µM [13] | other results
O=C(Nc1cnn(-c2csc(C(=O)NC3COC3)c2)c1)Nc1ccccc1Cl [Compound 17, 4-(4-(3-(2-chlorophenyl)ureido)-1H-pyrazol-1-yl)-N-(oxetan-3-yl)thiophene-2-carboxamide] | 109% | 103% | 120% | 83.4% | 64.3% | 102% | 98.2% | 103% | 95.4% | 107% | 98.2% | 81% | 98% | –
O=C(Nc1cnn(-c2csc(C(=O)NC3COC3)c2)c1)Nc1c(F)cccc1Cl [Compound 25, 4-(4-(3-(2-chloro-6-fluorophenyl)ureido)-1H-pyrazol-1-yl)-N-(oxetan-3-yl)thiophene-2-carboxamide] | 90.8% | 93.5% | 93.2% | 101% | 38.6% | 110% | 99.3% | 91.2% | 105% | 110% | 103% | 74.9% | 102% | –
Cc1sc(C(=O)NC2COC2)cc1-n1cc(NC(=O)Nc2c(F)cccc2Cl)cn1 [Compound 27, 4-(4-(3-(2-chloro-6-fluorophenyl)ureido)-1H-pyrazol-1-yl)-5-methyl-N-(oxetan-3-yl)thiophene-2-carboxamide] | – | – | – | – | – | – | – | – | – | – | – | – | – | remaining activity at 10 µM ([1]; 10 uM): 75.5%; remaining activity at 10 µM ([2]; 10 uM): 91.3%; remaining activity at 10 µM ([3]; 10 uM): 93.9%; remaining activity at 10 µM ([4]; 10 uM): 102%; remaining activity at 10 µM ([5]; kinase TRKC, 10 uM, read-out: % Enzyme Activity (relative to DMSO controls)): 86%; remaining activity at 10 µM ([6]; 10 uM): 95.2%; remaining activity at 10 µM ([7]; 10 uM): 102%; remaining activity at 10 µM ([8]; 10 uM): 98.6%; remaining activity at 10 µM ([9]; 10 uM): 105%; remaining activity at 10 µM ([10]; 10 uM): 100%; remaining activity at 10 µM ([11]; 10 uM): 96.8%; remaining activity at 10 µM ([12]; 10 uM): 98.4%; remaining activity at 10 µM ([13]; 10 uM): 113%
